# Test results published in US11976070B1, “Substituted pyrimido[6’, 1’:2,3]imidazo[4,5-c][1,6]naphthyridines as CK2 inhibitors” (KING FAISAL UNIVERSITY, priority 2023, dated 2024).
# Where two headings read alike, the source gives them in different places.
# How the values were obtained:
# H1299 (lung) = assay: In vitro cytotoxic activity (MTT) assay, H1299; assay type: cell-based; settings: Homo sapiens, NCI-H1299; H1299 (lung) cells, exposed for 96 hours; read-out: IC50, 50% inhibition of cell proliferation
# Experimental: (§1) Compounds 1-12 were screened for their in vitro cytotoxic activity utilizing a 3-(4,5-dimethyl-thiazol-2-yl)-2,5-diphenyltetrazolium bromide (MTT) assay against selected cancer human cell lines consisting of PC3 (prostate), HCT116 (colon). A375 (melanoma), H1299 (lung), MIAPaCa-2 (pancreas), HL60 (leukemia), MCF7 (breast), MDA-MB-231 (breast) (T. Mosmann, J. Immunol. Meth., 1983, 65, 55-63). The cells were cultured at 37° C. in RMPI1640 medium supplemented with 10% fetal bovine serum, 50 IU/mL penicillin, and 50 μg/mL streptomycin in a 5% CO2 incubator. All cells were sub-cultured 3 times/week by trypsinisation. Viable cells were seeded and allowed to adhere for 12 h before a test drug was added in 96-well plates at an initial density of 1.0×10^5 cells/mL. Tumour cell lines were separately exposed to various concentrations of the tested compounds followed by incubation at a temperature of 37° C. during 96 h inside a medium of fresh RMPI 1640. Cells were subsequently incubated at 37° C. using MTT at 0.5 mg/mL during 4 h. After removal of supernatant, formazan crystals were dissolved in isopropanol and the optical density was measured at 570 nm. CX-4945 was used as a positive control.
# PC3 (prostate) = assay: In vitro cytotoxic activity (MTT) assay, PC3; assay type: cell-based; settings: Homo sapiens, Prostate cell; PC3 (prostate) cells, exposed for 96 hours; read-out: IC50, 50% inhibition of cell proliferation
# Experimental: as §1
# [1] = system: various human cancer cell lines; assay: In vitro cytotoxic activity assay, panel statement; assay type: cell-based
# Experimental: as §1
# [2] = target: T1, recombinant human CK2 (RRββ-holoenzyme) (Homo sapiens, UniProt P68400); assay: CK2 Kinase Assay (radiometric, [γ-33P]ATP); assay type: biochemical; settings: final ATP 15 μM, 10 min at 30° C.; read-out: protein kinase CK2 inhibition IC50
# T1 construct: purchased Millipore
# T1 sequence (P68400 whole entry): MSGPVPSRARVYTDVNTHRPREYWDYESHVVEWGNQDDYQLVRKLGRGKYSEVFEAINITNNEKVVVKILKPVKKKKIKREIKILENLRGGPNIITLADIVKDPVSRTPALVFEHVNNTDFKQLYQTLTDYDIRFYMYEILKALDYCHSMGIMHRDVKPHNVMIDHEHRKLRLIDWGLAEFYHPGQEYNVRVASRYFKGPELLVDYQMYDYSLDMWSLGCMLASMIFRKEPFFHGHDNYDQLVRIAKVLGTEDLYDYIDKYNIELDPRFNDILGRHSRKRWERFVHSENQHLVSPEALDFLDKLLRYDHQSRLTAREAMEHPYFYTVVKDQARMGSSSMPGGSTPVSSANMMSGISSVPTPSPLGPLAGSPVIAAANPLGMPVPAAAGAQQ
# T1 sequence (P67870 whole entry partner): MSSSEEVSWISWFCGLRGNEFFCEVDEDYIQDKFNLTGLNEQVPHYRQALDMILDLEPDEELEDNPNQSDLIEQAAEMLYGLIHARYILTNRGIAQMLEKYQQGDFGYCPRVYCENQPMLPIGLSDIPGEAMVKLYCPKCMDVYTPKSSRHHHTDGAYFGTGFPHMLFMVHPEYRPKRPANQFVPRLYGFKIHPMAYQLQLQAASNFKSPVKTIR
# Experimental: CK2 Kinase Assay was conducted using the protocol as described in Pierre F. et al; J. Med. Chem. 2011, 54, 635-654. The tested compounds in aqueous solution were added at a volume of 10 μL to a reaction mixture comprising 10 μL of assay dilution buffer (ADB; 20 mM MOPS, pH 7.2, 25 mM β-glycerol phosphate, 5 mM EGTA, 1 mM sodium orthovanadate, and 1 mM dithiothreitol), 10 μL of substrate peptide (RRRDDDSDDD, dissolved in ADB at a concentration of 1 mM), 10 μL of recombinant human CK2 (RRββ-holoenzyme, 25 ng dissolved in ADB; Millipore). Reactions were initiated by the addition of 10 μL of ATP solution (90% 75 mMMgCl2, 75 μM ATP (final ATP concentration:15 μM) dissolved in ADB; 10% [γ-33P] ATP (stock 1 mCi/100 μL: 3000 Ci/mmol (Perkin-Elmer) and maintained for 10 min at 30° C. The reactions were quenched with 100 μL of 0.75% phosphoric acid and then transferred to and filtered through a phosphor cellulose filter plate (Millipore). After washing each well five times with 0.75% phosphoric acid, the plate was dried under vacuum for 5 min and, following the addition of 15 μL of scintillation fluid to each well, the residual radioactivity was measured using a Wallac […]. The IC50 values were derived from eight concentrations of test inhibitors.
# A375 (melanoma) = assay: In vitro cytotoxic activity (MTT) assay, A375; assay type: cell-based; settings: Homo sapiens, A-375; A375 (melanoma) cells, exposed for 96 hours; read-out: IC50, 50% inhibition of cell proliferation
# Experimental: as §1
# HCT116 (colon) = assay: In vitro cytotoxic activity (MTT) assay, HCT116; assay type: cell-based; settings: Homo sapiens, HCT-116; HCT116 (colon) cells, exposed for 96 hours; read-out: IC50, 50% inhibition of cell proliferation
# Experimental: as §1
# MIAPaCa-2 (pancreas) = assay: In vitro cytotoxic activity (MTT) assay, MIAPaCa-2; assay type: cell-based; settings: Homo sapiens, MIA PaCa-2; MIAPaCa-2 (pancreas) cells, exposed for 96 hours; read-out: IC50, 50% inhibition of cell proliferation
# Experimental: as §1
# MCF7 (breast) = assay: In vitro cytotoxic activity (MTT) assay, MCF7; assay type: cell-based; settings: Homo sapiens; MCF7 (breast) cells, exposed for 96 hours; read-out: IC50, 50% inhibition of cell proliferation
# Experimental: as §1
# HL60 (leukemia) = assay: In vitro cytotoxic activity (MTT) assay, HL60; assay type: cell-based; settings: Homo sapiens, HL-60; HL60 (leukemia) cells, exposed for 96 hours; read-out: IC50, 50% inhibition of cell proliferation
# Experimental: as §1
# MDA-MB-231 (breast) = assay: In vitro cytotoxic activity (MTT) assay, MDA-MB-231; assay type: cell-based; settings: Homo sapiens; MDA-MB-231 (breast) cells, exposed for 96 hours; read-out: IC50, 50% inhibition of cell proliferation
# Experimental: as §1
smiles,measurement,setting,value
"Clc1cccc(Nc2nc3ccncc3c3nc4ccncn4c23)c1 [Compound 1, N-(3-chlorophenyl)pyrimido[6′,1′:2,3]imidazo[4,5-c][1,6]naphthyridin-6-amine]",IC50,H1299 (lung),2500 nM
same,IC50,PC3 (prostate),1400 nM
same,"in vitro anti-proliferative activity, in words",[1],promising anti-proliferative activity
same,"in vitro anti-proliferative activity, in words",[1]; listed as 13,promising in vitro anti-proliferative activity
same,IC50,[2],22 nM
same,IC50,A375 (melanoma),2900 nM
same,IC50,HCT116 (colon),1100 nM
same,IC50,MIAPaCa-2 (pancreas),900 nM
same,IC50,MCF7 (breast),5100 nM
same,IC50,HL60 (leukemia),3200 nM
same,IC50,MDA-MB-231 (breast),4500 nM
